In ChEMBL document CHEMBL5131555, “Antibacterial Nanoassembled Calix[4]arene Exposing Choline Units Inhibits Biofilm and Motility of Gram Negative Bacteria” (2022):
Calls of active or inactive are those of the source. The calls are words filed in the database; no cut-off is given here.

Key:
Pseudomonas aeruginosa [1] = assay: Effect on twitching capacity of ofloxacin resistant Pseudomonas aeruginosa 1 ocular isolate assessed as reduction of motility zone at 1/2 times of MIC incubated for 24 hrs; assay type: functional; set-up: scale not given: the % may be the effect or the level left
Pseudomonas aeruginosa [2] = assay: Antibiofilm activity against ofloxacin resistant Pseudomonas aeruginosa 1 ocular isolate assessed as inhibition of biofilm biomass at 1/2 times of MIC measured after 24 hrs by safranin staining based spectrophotometer EIA reader analysis; assay type: functional
Escherichia coli [3] = assay: Antibacterial activity against Escherichia coli ATCC 10536 assessed as bacterial growth inhibition measured after 24 hrs by CLSI based microdilution method; assay type: functional
Pseudomonas aeruginosa [4] = assay: Antibacterial activity against Pseudomonas aeruginosa ATCC 9027 assessed as bacterial growth inhibition measured after 24 hrs by CLSI based microdilution method; assay type: functional
Pseudomonas aeruginosa [5] = assay: Antibacterial activity against Pseudomonas aeruginosa DSM 102273 assessed as bacterial growth inhibition measured after 24 hrs by CLSI based microdilution method; assay type: functional
Pseudomonas aeruginosa [6] = assay: Antibacterial activity against ofloxacin resistant Pseudomonas aeruginosa 1 ocular isolate assessed as bacterial growth inhibition measured after 24 hrs by CLSI based microdilution method; assay type: functional
Escherichia coli [7] = assay: Bactericidal activity against Escherichia coli ATCC 10536 assessed as bacterial growth inhibition measured after 24 to 48 hrs by CLSI based microdilution method; assay type: functional; settings: time 24-48 hrs
Pseudomonas aeruginosa [8] = assay: Bactericidal activity against Pseudomonas aeruginosa ATCC 9027 assessed as bacterial growth inhibition measured after 24 to 48 hrs by CLSI based microdilution method; assay type: functional; settings: time 24-48 hrs
Pseudomonas aeruginosa [9] = assay: Bactericidal activity against Pseudomonas aeruginosa DSM 102273 assessed as bacterial growth inhibition measured after 24 to 48 hrs by CLSI based microdilution method; assay type: functional; settings: time 24-48 hrs
Pseudomonas aeruginosa [10] = assay: Bactericidal activity against ofloxacin resistant Pseudomonas aeruginosa 1 ocular isolate assessed as bacterial growth inhibition measured after 24 to 48 hrs by CLSI based microdilution method; assay type: functional; settings: time 24-48 hrs
Cell membrane [11] = assay: Induction of outer membrane permeabilization in Escherichia coli ATCC 10536 assessed as crystal violet uptake at MIC incubated for 60 mins by crystal violet staining based UV-VIS spectrophotometer ( Rvb = 56%)
Cell membrane [12] = assay: Induction of outer membrane permeabilization in Pseudomonas aeruginosa ATCC 9027 assessed as crystal violet uptake at MIC incubated for 60 mins by crystal violet staining based UV-VIS spectrophotometer ( Rvb = 53%)
Escherichia coli [13] = assay: Antibiofilm activity against Escherichia coli ATCC 10536 assessed as inhibition of biofilm biomass at 1/2 times of MIC measured after 24 hrs by safranin staining based spectrophotometer EIA reader analysis; assay type: functional
Pseudomonas aeruginosa [14] = assay: Antibiofilm activity against Pseudomonas aeruginosa ATCC 9027 assessed as inhibition of biofilm biomass at 1/2 times of MIC measured after 24 hrs by safranin staining based spectrophotometer EIA reader analysis; assay type: functional
Escherichia coli [15] = assay: Bactericidal activity against Escherichia coli ATCC 10536 assessed as planktonic growth inhibition at 1/4 times of MIC measured after 24 hrs by spectrophotometer EIA reader analysis; assay type: functional
Escherichia coli [16] = assay: Bactericidal activity against Escherichia coli ATCC 10536 assessed as planktonic growth inhibition at 1/8 times of MIC measured after 24 hrs by spectrophotometer EIA reader analysis; assay type: functional
Escherichia coli [17] = assay: Antibiofilm activity against Escherichia coli ATCC 10536 assessed as inhibition of biofilm biomass at 1/4 times of MIC measured after 24 hrs by safranin staining based spectrophotometer EIA reader analysis; assay type: functional
Escherichia coli [18] = assay: Antibiofilm activity against Escherichia coli ATCC 10536 assessed as inhibition of biofilm biomass at 1/8 times of MIC measured after 24 hrs by safranin staining based spectrophotometer EIA reader analysis; assay type: functional
Escherichia coli [19] = assay: Antibiofilm activity against Escherichia coli ATCC 10536 assessed as inhibition of biofilm formation at 1/2 times of MIC measured after 24 hrs by safranin staining based light microscopy; assay type: functional, organism-based
Escherichia coli [20] = assay: Antibiofilm activity against Escherichia coli ATCC 10536 assessed as inhibition of biofilm formation at 1/4 times of MIC measured after 24 hrs by safranin staining based light microscopy; assay type: functional, organism-based
Escherichia coli [21] = assay: Antibiofilm activity against Escherichia coli ATCC 10536 assessed as formation of looser colonies at 1/2 times of MIC measured after 24 hrs by safranin staining based light microscopy; assay type: functional, organism-based
Escherichia coli [22] = assay: Antibiofilm activity against Escherichia coli ATCC 10536 assessed as formation of looser colonies at 1/4 times of MIC measured after 24 hrs by safranin staining based light microscopy; assay type: functional, organism-based
Pseudomonas aeruginosa [23] = assay: Antibiofilm activity against Pseudomonas aeruginosa ATCC 9027 assessed as reduction in preformed bacterial biofilm at 18.8 microg/ml measured after 24 hrs by safranin staining based spectrophotometer EIA reader analysis; assay type: functional; set-up: scale not given: the % may be the effect or the level left; settings: dose 18.8 µg/ml
Pseudomonas aeruginosa [24] = assay: Antibiofilm activity against Pseudomonas aeruginosa ATCC 9027 assessed as reduction in preformed bacterial biofilm at 37.6 microg/ml measured after 24 hrs by safranin staining based spectrophotometer EIA reader analysis; assay type: functional; set-up: scale not given: the % may be the effect or the level left; settings: dose 37.6 µg/ml
Pseudomonas aeruginosa [25] = assay: Antibiofilm activity against Pseudomonas aeruginosa ATCC 9027 assessed as reduction in preformed bacterial biofilm at 75 microg/ml measured after 24 hrs by safranin staining based spectrophotometer EIA reader analysis; assay type: functional; set-up: scale not given: the % may be the effect or the level left; settings: dose 75 µg/ml
Escherichia coli [26] = assay: Antibiofilm activity against Escherichia coli ATCC 10536 assessed as reduction in preformed bacterial biofilm at 150 microg/ml measured after 24 hrs by safranin staining based spectrophotometer EIA reader analysis; assay type: functional; set-up: scale not given: the % may be the effect or the level left; settings: dose 150 µg/ml
Escherichia coli [27] = assay: Effect on swarming capacity of Escherichia coli ATCC 10536 assessed as reduction of motility zone at 1/2 times of MIC incubated for 24 hrs; assay type: functional; set-up: scale not given: the % may be the effect or the level left
Escherichia coli [28] = assay: Effect on twitching capacity of Escherichia coli ATCC 10536 assessed as reduction of motility zone at 1/2 times of MIC incubated for 24 hrs; assay type: functional; set-up: scale not given: the % may be the effect or the level left
Pseudomonas aeruginosa [29] = assay: Effect on swarming capacity of Pseudomonas aeruginosa ATCC 9027 assessed as reduction of motility zone at 1/2 times of MIC incubated for 24 hrs; assay type: functional; set-up: scale not given: the % may be the effect or the level left
Pseudomonas aeruginosa [30] = assay: Effect on twitching capacity of Pseudomonas aeruginosa ATCC 9027 assessed as reduction of motility zone at 1/2 times of MIC incubated for 24 hrs; assay type: functional; set-up: scale not given: the % may be the effect or the level left

## CCCCCCCCCCCCOc1c2cc(C[N+](C)(C)CCO)cc1Cc1cc(C[N+](C)(C)CCO)cc(c1OCCCCCCCCCCCC)Cc1cc(C[N+](C)(C)CCO)cc(c1OCCCCCCCCCCCC)Cc1cc(C[N+](C)(C)CCO)cc(c1OCCCCCCCCCCCC)C2.[Cl-].[Cl-].[Cl-].[Cl-]
Pseudomonas aeruginosa [1]
  Activity: 50%
Pseudomonas aeruginosa [2]
  inhibition (INH): 40%
Escherichia coli [3]
  MIC: 18.8 µg/mL
Pseudomonas aeruginosa [4]
  MIC: 9.4 µg/mL
Pseudomonas aeruginosa [5]
  MIC: 18.8 µg/mL
Pseudomonas aeruginosa [6]
  MIC: 9.4 µg/mL
Escherichia coli [7]
  MBC: 18.8 µg/mL
Pseudomonas aeruginosa [8]
  MBC: 18.8 µg/mL
Pseudomonas aeruginosa [9]
  MBC: 18.8 µg/mL
Pseudomonas aeruginosa [10]
  MBC: 18.8 µg/mL
Cell membrane [11]
  Activity: 78.8%
Cell membrane [12]
  Activity: 71.6%
Escherichia coli [13]
  inhibition (INH): 90.4%
Pseudomonas aeruginosa [14]
  inhibition (INH): 40%
Escherichia coli [15]
  inhibition (INH): 14.5%
Escherichia coli [16]
  inhibition (INH): 1.8%
Escherichia coli [17]
  inhibition (INH): 77.6%
Escherichia coli [18]
  inhibition (INH): 51%
Escherichia coli [19]
  Activity: Active
Escherichia coli [20]
  Activity: Active
Escherichia coli [21]
  Activity: Active
Escherichia coli [22]
  Activity: Active
Pseudomonas aeruginosa [23]
  Activity: 37%
Pseudomonas aeruginosa [24]
  Activity: 37%
Pseudomonas aeruginosa [25]
  Activity: 58%
Escherichia coli [26]
  Activity: 66.5%
Escherichia coli [27]
  Activity: 50%
Escherichia coli [28]
  Activity: 50%
Pseudomonas aeruginosa [29]
  Activity: 50%
Pseudomonas aeruginosa [30]
  Activity: 50%
